The results in this text go back to ChEMBL document CHEMBL1201862, “PubChem BioAssay data set” (2004).

Structures are written as SMILES.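 Exposure lasted 48 hours, with cells grown in 96-well plates and compounds tested at five concentrations. Abbreviation: GI50, concentration required for 50% inhibition of growth.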 The source made the active and inactive calls. Cut-off read from the data, not from the text of the source: active = GI50 up to about 1.1 µM and inactive = higher. Where only a bound is given, the exact number is not on record here.

Test systems include UACC-62; SN12C; NCI-H23; CAKI-1; OVCAR-3; HCT-116; NCI-H522; HCT-15; SF-539; U-251; SF-295; OVCAR-5; NCI-H460; SK-MEL-2; ACHN; RPMI-8226; Malme-3M; A498; EKVX; MCF7.
Assay in all cases: NCI-60 cell line screen, 48 h

In the case of `CCCCCNC(=O)c1c(O)[nH]c(=S)[nH]c1=O`, the GI50 with UACC-62, in the assay on SN12C, in the assay with NCI-H23, in the assay on CAKI-1, in the assay on OVCAR-3 and in the assay with HCT-116 was > 100 µM (inactive) each time. Further, the GI50 is > 100 µM (inactive) with NCI-H522; 90.6 µM in the assay with HCT-15; > 100 µM (inactive) with SF-539; 66.8 µM (inactive) with U-251; 78.2 µM (inactive) in the assay on SF-295; > 100 µM (inactive) in the assay on OVCAR-5. Moreover, the GI50 in the assay on NCI-H460 is > 100 µM (inactive); in the assay with SK-MEL-2 it was > 100 µM (inactive); in the assay on ACHN, > 100 µM (inactive); in the assay on RPMI-8226, > 100 µM (inactive); in the assay on Malme-3M, > 100 µM (inactive); with A498 it was 96.8 µM (inactive).

Take `CC1(O)CCC2(C#N)CCC1C2O` (stereo not given): the GI50 with UACC-62 was > 100 µM (inactive); in the assay with SN12C, > 100 µM (inactive); in the assay with CAKI-1, > 100 µM (inactive); with OVCAR-3, > 100 µM (inactive); in the assay with HCT-116, 43.5 µM (inactive); in the assay on NCI-H522, 50.6 µM (inactive). The GI50 in the assay on HCT-15 was > 100 µM; in the assay on SF-539 it was > 100 µM (inactive); in the assay on U-251, > 100 µM (inactive); in the assay with SF-295, > 100 µM (inactive); in the assay with OVCAR-5, > 100 µM (inactive); with NCI-H460, 43.9 µM (inactive). In addition, the GI50 in the assay with EKVX is > 100 µM (inactive); in the assay on SK-MEL-2 it was > 100 µM (inactive); in the assay on ACHN it was > 100 µM (inactive); in the assay with RPMI-8226, 26.5 µM (inactive); in the assay with Malme-3M, > 100 µM (inactive); with A498, > 100 µM (inactive).

On to `NC(=S)NS(=O)(=O)c1ccc(Cl)cc1Cl`, for which the GI50 in the assay with UACC-62, in the assay on SN12C, in the assay on NCI-H23, in the assay on CAKI-1, with OVCAR-3 and in the assay with HCT-116 was > 100 µM (inactive) each time. The GI50 is > 100 µM (inactive) in the assay with NCI-H522; > 100 µM in the assay with HCT-15; > 100 µM (inactive) in the assay on SF-539; > 100 µM (inactive) in the assay with U-251; > 100 µM (inactive) in the assay with SF-295; > 100 µM (inactive) in the assay on OVCAR-5. The GI50 in the assay with NCI-H460, in the assay with EKVX, in the assay on SK-MEL-2, in the assay with ACHN, with RPMI-8226 and with Malme-3M was > 100 µM (inactive) in each case.

Consider `Cc1c(/C=N/NC(=O)c2ccccc2O)c(=O)n(-c2ccccc2)n1C`, for which the GI50 in the assay on UACC-62 was > 100 µM (inactive); with SN12C, > 100 µM (inactive); with NCI-H23, > 100 µM (inactive); in the assay with OVCAR-3, > 100 µM (inactive); with HCT-116 it was 64.9 µM (inactive); with NCI-H522, > 100 µM (inactive). Further, the GI50 in the assay on HCT-15 is 29.2 µM; in the assay with SF-539, > 100 µM (inactive); in the assay on U-251, > 100 µM (inactive); in the assay on SF-295, > 100 µM (inactive); in the assay on NCI-H460, 47.1 µM (inactive); with EKVX, 49.2 µM (inactive). The GI50 in the assay with SK-MEL-2 is > 100 µM (inactive); in the assay with ACHN it was > 100 µM (inactive); with RPMI-8226, 48.2 µM (inactive); in the assay with Malme-3M it was > 100 µM (inactive).

As to `CCOC(=O)CCC(NC(=O)c1ccc(Nc2nc3cc(C(F)(F)F)ccc3nc2C(=O)OCC)cc1)C(=O)OCC` (stereo not given), the GI50 was 9.16 µM (inactive) in the assay on UACC-62; 10.7 µM (inactive) in the assay on SN12C; 16 µM (inactive) in the assay with NCI-H23; 13.8 µM (inactive) with OVCAR-3; 6.75 µM (inactive) with HCT-116; 11.2 µM (inactive) with NCI-H522. The GI50 was 29.9 µM with HCT-15; 12.6 µM (inactive) in the assay with SF-539; 11.3 µM (inactive) in the assay with U-251; > 10 µM (inactive) in the assay with MCF7; 5.74 µM (inactive) in the assay on SF-295; 16.6 µM (inactive) in the assay on OVCAR-5. The GI50 with NCI-H460 is 18 µM (inactive); with EKVX it was 15.9 µM (inactive); in the assay on SK-MEL-2, 14.1 µM (inactive); with ACHN, 13.8 µM (inactive); with RPMI-8226, 24.9 µM (inactive).

In the case of `O=c1cc(O)ccn1C1C=C(CO)C(O)C1O` (stereo not given), the GI50 is > 625 µM (inactive) in the assay on UACC-62; 586 µM (inactive) in the assay with SN12C; > 625 µM (inactive) with CAKI-1; > 625 µM (inactive) in the assay on OVCAR-3; 263 µM (inactive) with HCT-116; > 625 µM with HCT-15. Besides, the GI50 in the assay on SF-539 was > 625 µM (inactive); in the assay with U-251, > 625 µM (inactive); in the assay on MCF7, > 625 µM (inactive); in the assay on SF-295 it was > 625 µM (inactive); in the assay with NCI-H460, 131 µM (inactive); in the assay with SK-MEL-2, > 625 µM (inactive). Besides, the GI50 was 411 µM (inactive) in the assay on RPMI-8226 and > 625 µM (inactive) with Malme-3M.

As to `O=C1c2ccccc2C(=O)c2c(OCCOCCO)cccc21`, the GI50 was 0.585 µM (active) in the assay on UACC-62; 0.714 µM (active) with SN12C; > 100 µM (inactive) with NCI-H23; 21.9 µM (inactive) with CAKI-1; 28.4 µM (inactive) in the assay on OVCAR-3; 45.6 µM (inactive) in the assay with HCT-116. Further, the GI50 with NCI-H522 was 52.6 µM (inactive); in the assay with HCT-15, 63.7 µM; in the assay with SF-539, 45.3 µM (inactive); in the assay on U-251, > 100 µM (inactive); in the assay with MCF7, 74.6 µM (inactive); with SF-295, 96.6 µM (inactive). Also, the GI50 was > 100 µM (inactive) in the assay with OVCAR-5; 54.7 µM (inactive) with NCI-H460; > 100 µM (inactive) in the assay with EKVX; > 100 µM (inactive) with SK-MEL-2; 43.9 µM (inactive) in the assay with ACHN; 74.3 µM (inactive) with Malme-3M.

As to `CC(=O)Nc1ccccc1-c1nc2ccccc2nc1C`, the GI50 with UACC-62, in the assay with SN12C, with NCI-H23, in the assay with CAKI-1, in the assay with OVCAR-3 and in the assay with HCT-116 was > 100 µM (inactive) in each case. The GI50 in the assay on NCI-H522 is > 100 µM (inactive); in the assay with HCT-15, > 100 µM; with SF-539 it was > 100 µM (inactive); in the assay on U-251, > 100 µM (inactive); with SF-295 it was > 100 µM (inactive); in the assay on OVCAR-5 it was > 100 µM (inactive). In addition, the GI50 with NCI-H460, with EKVX, in the assay with SK-MEL-2, in the assay with ACHN, in the assay on RPMI-8226 and in the assay on Malme-3M was > 100 µM (inactive) in each case. Also, the GI50 in the assay on A498 is > 100 µM (inactive).

`C=C(Nc1ccc([N+](=O)[O-])cc1[N+](=O)[O-])c1c/c(=N\NC(N)=S)c2ccccc2o1`: the GI50 is > 100 µM (inactive) with UACC-62; 47.6 µM (inactive) in the assay on SN12C; 81.8 µM (inactive) in the assay on NCI-H23; > 100 µM (inactive) in the assay on CAKI-1; 22.7 µM (inactive) in the assay on OVCAR-3; 33.7 µM (inactive) in the assay on HCT-116. The GI50 with NCI-H522 was > 100 µM (inactive); in the assay on HCT-15, 51.9 µM; with SF-539 it was 16.6 µM (inactive); with U-251, 61.1 µM (inactive); in the assay on MCF7 it was 40.6 µM (inactive); in the assay with SF-295 it was 39.5 µM (inactive). Further, the GI50 is 56.9 µM (inactive) in the assay with OVCAR-5; > 100 µM (inactive) in the assay with NCI-H460; 68.7 µM (inactive) in the assay on EKVX; > 100 µM (inactive) with SK-MEL-2; 89.5 µM (inactive) with ACHN.

Consider `O=C(CSc1nnc(-c2ccc(/N=C\c3ccc(Cl)cc3)cc2)o1)Nc1ccccc1`, for which the GI50 was 73.8 µM (inactive) in the assay on UACC-62; > 100 µM (inactive) with SN12C; 50.2 µM (inactive) in the assay on NCI-H23; 16.6 µM (inactive) with HCT-116; 16.9 µM (inactive) in the assay with NCI-H522; 68.2 µM in the assay on HCT-15. Also, the GI50 is 52 µM (inactive) in the assay on U-251; 94.4 µM (inactive) in the assay with SF-295; > 100 µM (inactive) in the assay on NCI-H460; > 100 µM (inactive) in the assay on EKVX; > 100 µM (inactive) with SK-MEL-2; > 100 µM (inactive) in the assay on ACHN. The values for the GI50 with RPMI-8226 and in the assay with Malme-3M were 31.6 µM (inactive) and > 100 µM (inactive), respectively.

Take `CC(=O)C(/N=N\C1CCC(S(=O)(=O)NB2N=CS2)CC1)C(=O)Nc1ccccc1C` (stereo not given): the GI50 with UACC-62 was 17.9 µM (inactive); in the assay on SN12C, 17.4 µM (inactive); in the assay on NCI-H23, 13.6 µM (inactive); in the assay on CAKI-1 it was 23.1 µM (inactive); in the assay with OVCAR-3, 13.8 µM (inactive); in the assay with HCT-116 it was 13.5 µM (inactive). In addition, the GI50 is 15.3 µM (inactive) in the assay with NCI-H522; 10.5 µM in the assay on HCT-15; 17.7 µM (inactive) in the assay with SF-539; 13.7 µM (inactive) in the assay with U-251; 17 µM (inactive) with SF-295; 19.8 µM (inactive) in the assay on OVCAR-5. Also, the GI50 was 15.8 µM (inactive) in the assay with NCI-H460; 19.3 µM (inactive) in the assay on EKVX; 17.9 µM (inactive) in the assay with SK-MEL-2; 12.2 µM (inactive) with ACHN; 31.1 µM (inactive) in the assay with RPMI-8226; 16 µM (inactive) with Malme-3M. The GI50 with A498 is 16.7 µM (inactive).

As for `N#C/C(=C\c1ccc(C(O)P(=O)(O)O)cc1)C(N)=O` (stereo not given), the GI50 with UACC-62 was 7.83 µM (inactive); in the assay on SN12C, > 100 µM (inactive); with NCI-H23 it was > 100 µM (inactive); in the assay with OVCAR-3, > 100 µM (inactive); in the assay with HCT-116, 76.9 µM (inactive); in the assay with NCI-H522, > 100 µM (inactive). The GI50 with HCT-15 was > 100 µM; in the assay on SF-539, 35.3 µM (inactive); with U-251, 60.5 µM (inactive); in the assay with SF-295, > 100 µM (inactive); with NCI-H460, 6.44 µM (inactive); in the assay on EKVX it was > 100 µM (inactive). For the same compound, the GI50 in the assay with SK-MEL-2 is > 100 µM (inactive); with ACHN, 14.5 µM (inactive); with RPMI-8226, > 100 µM (inactive); in the assay with Malme-3M it was > 100 µM (inactive); in the assay on A498, > 100 µM (inactive).
